pKi: −log10 of the molar value.
Assays:
[1] = biological target: T1, [IKZF1 ZF2]-[compound]-[CRBN/DDB1] ternary complex (Homo sapiens, UniProt Q13422+Q96SW2); assay: AlphaLISA assay for off-target recruitment detection, IKZF1 ZF2; type: binding; settings: 1 μM compound; normalized to Lenalidomide; read-out: Normalized ternary complex response, IKZF1 ZF2
T1 construct: IKZF1 ZF2
Procedure, shortened: (§1)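 Neo-substrate with 40 μg/ml donor beads and 200 nM 6×His-CRBN/DDB1 with 40 μg/ml anti-His acceptor beads were each prepared in PBS pH 7.4 with Tween-20 and 1 mM DTT, preincubated 30 min at RT, then mixed. Compounds at 2% DMSO were incubated 30 min at 25 °C, read at 680/615 nm, and normalised between DMSO background and reference glue maximum.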

GSPT1-HiBiT HEK293 cells = assay: Cell Viability-CTG assay accompanying the Nano-Glo HiBiT assay; type: cell-based; settings: 6 hours treatment, viability of GSPT1-HiBiT HEK293 cells
Method: In parallel, the Cell Viability-CTG assay was performed to ensure that the potential decrease of the luminescent signal observed in the Nano-Glo HiBiT assay is a result of protein degradation and not a result of decreasing cell viability. For CTG assay accompanying the Nano-Glo HiBiT assay, cells were cultured, seeded and treated as described above. After 6 hours of incubation (37° C., 5% CO2), plates were removed from the incubator and let to equilibrate to RT. Luminescent signal detection was conducted using the CellTiter-Glo Lumiescent Cell Viability Assay (Promega, cat. nr G7573). 10 μL of the Cell Titer Glo reagent was added per well, plates were shaken to facilitate lysis (460 rpm, 4 min, RT) and incubated in the dark for the following 8 min. Luminescence was read using the CLARIOstar multimode plate reader (BMG LABTECH). The raw data (the relative luminescence unit values, RLU) were uploaded under the relevant protocol and analysed in CDDVault data management platform, in a manner similar to the description above. The Mean Minimum values were calculated in CDDVault using non-linear regression and appropriate equations.

[2] = biological target: [GSPT1]-[compound of formula (I)]-[CRBN/DDB1] complex (Homo sapiens, UniProt P15170+Q96SW2); assay: HTRF ternary complex assay (GSPT1); type: binding; settings: read-out: HTRF ternary complex Average pEC50 by molecule (converted)
Procedure, shortened: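 Compounds in dose-response were incubated 180 min at 25 °C with 48 nM GSPT1 and 52.8 nM 6×His-CRBN/DDB1, plus Streptavidin-Eu cryptate and anti-6×His-d2, in buffer with 1 mM DTT and 0.5% DMSO. TR-FRET (665/620) was normalized to DMSO background and fitted with a Hill slope model for EC50/pEC50.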

[3] = biological target: T2, [SALL4 ZF2]-[compound]-[CRBN/DDB1] ternary complex (Homo sapiens, UniProt Q96SW2+Q9UJQ4); assay: AlphaLISA assay for off-target recruitment detection, SALL4 ZF2; type: binding; settings: 1 μM compound; normalized to Lenalidomide; read-out: Normalized ternary complex response, SALL4 ZF2
T2 construct: SALL4 ZF2
Procedure, shortened: as §1

[4] = biological target: CRBN/DDB1 protein complex (Homo sapiens, UniProt Q96SW2); assay: CRBN displacement TR-FRET assay; settings: Thalidomide-Red tracer, 6×His-CRBN/DDB1; read-out: CRBN binding Ki
Procedure, shortened: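 Test compound at various concentrations competed with 6.8 nM Thalidomide-Red tracer for 5 nM 6×His-CRBN/DDB1, detected with 0.5 nM anti-His-Eu cryptate in buffer with 1 mM DTT and 1% DMSO. Incubation ran 180 min at room temperature with a time-resolved fluorescence read-out. IC50 values were converted to Ki by Cheng–Prusoff using tracer Kd and protein and tracer concentrations.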

CRBN/DDB1 protein complex, sequence (Q96SW2 whole entry, species assumed): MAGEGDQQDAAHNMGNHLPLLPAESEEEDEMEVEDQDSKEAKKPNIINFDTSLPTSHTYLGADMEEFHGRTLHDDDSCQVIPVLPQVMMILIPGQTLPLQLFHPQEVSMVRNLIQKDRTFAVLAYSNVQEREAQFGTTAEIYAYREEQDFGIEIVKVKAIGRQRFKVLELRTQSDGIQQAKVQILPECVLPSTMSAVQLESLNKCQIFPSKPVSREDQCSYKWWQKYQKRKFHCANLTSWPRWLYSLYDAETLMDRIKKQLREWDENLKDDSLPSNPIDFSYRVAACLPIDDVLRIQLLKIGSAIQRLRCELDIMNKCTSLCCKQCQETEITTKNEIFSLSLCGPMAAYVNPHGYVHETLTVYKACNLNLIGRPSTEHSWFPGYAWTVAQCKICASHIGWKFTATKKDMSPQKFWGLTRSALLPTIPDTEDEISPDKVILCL
CRBN/DDB1 protein complex, sequence (Q16531 whole entry partner, species assumed): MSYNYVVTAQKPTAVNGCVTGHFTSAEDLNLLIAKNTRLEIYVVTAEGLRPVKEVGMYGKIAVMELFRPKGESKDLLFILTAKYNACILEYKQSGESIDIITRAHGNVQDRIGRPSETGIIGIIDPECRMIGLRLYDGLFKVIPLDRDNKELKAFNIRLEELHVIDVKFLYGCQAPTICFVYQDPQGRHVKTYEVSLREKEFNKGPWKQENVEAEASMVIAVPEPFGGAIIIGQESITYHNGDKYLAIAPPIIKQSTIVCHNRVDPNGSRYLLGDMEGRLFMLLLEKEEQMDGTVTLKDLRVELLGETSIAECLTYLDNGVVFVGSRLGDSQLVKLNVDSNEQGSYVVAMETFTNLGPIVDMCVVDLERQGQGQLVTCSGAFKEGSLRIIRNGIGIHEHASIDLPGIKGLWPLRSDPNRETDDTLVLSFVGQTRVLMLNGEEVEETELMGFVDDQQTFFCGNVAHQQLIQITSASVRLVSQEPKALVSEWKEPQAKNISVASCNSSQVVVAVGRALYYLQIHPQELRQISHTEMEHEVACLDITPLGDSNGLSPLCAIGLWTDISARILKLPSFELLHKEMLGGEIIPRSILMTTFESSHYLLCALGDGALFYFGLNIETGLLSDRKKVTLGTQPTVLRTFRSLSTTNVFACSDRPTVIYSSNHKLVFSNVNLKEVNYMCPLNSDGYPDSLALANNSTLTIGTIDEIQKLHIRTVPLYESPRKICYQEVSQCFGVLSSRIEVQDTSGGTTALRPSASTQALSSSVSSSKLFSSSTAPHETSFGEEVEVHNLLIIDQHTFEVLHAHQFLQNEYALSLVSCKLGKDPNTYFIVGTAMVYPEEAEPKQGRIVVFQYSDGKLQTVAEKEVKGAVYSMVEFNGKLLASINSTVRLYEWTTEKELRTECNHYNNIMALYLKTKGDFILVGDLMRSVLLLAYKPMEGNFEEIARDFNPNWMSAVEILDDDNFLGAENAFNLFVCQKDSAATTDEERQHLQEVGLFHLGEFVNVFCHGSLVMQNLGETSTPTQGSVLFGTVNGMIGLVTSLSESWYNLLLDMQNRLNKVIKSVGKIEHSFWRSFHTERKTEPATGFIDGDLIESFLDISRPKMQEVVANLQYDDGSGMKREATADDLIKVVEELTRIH
T2 sequence (Q9UJQ4 410-432 limits assumed): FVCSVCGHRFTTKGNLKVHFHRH
T2 sequence (Q96SW2 whole entry): as the sequence (Q96SW2 whole entry, species assumed) above
T2 sequence (Q16531 whole entry partner): as the sequence (Q16531 whole entry partner, species assumed) above
[GSPT1]-[compound of formula (I)]-[CRBN/DDB1] complex, sequence (P15170 whole entry): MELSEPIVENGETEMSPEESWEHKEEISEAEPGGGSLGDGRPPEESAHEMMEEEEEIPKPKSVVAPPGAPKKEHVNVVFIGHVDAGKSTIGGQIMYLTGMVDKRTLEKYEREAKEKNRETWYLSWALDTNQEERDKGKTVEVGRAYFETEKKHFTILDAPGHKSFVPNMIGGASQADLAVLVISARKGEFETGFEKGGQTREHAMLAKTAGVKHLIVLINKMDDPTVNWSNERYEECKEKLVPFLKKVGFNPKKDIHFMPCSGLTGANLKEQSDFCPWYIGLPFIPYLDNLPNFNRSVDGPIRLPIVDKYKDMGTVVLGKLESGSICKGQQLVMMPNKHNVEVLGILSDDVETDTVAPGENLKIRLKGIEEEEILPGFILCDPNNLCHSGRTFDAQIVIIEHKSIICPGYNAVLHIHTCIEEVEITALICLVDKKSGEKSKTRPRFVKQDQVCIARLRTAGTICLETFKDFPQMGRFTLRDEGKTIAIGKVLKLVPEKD
[GSPT1]-[compound of formula (I)]-[CRBN/DDB1] complex, sequence (Q96SW2 whole entry): as the sequence (Q96SW2 whole entry, species assumed) above
[GSPT1]-[compound of formula (I)]-[CRBN/DDB1] complex, sequence (Q16531 whole entry partner): as the sequence (Q16531 whole entry partner, species assumed) above
T1 sequence (Q13422 145-167 limits assumed): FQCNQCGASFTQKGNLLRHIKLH
T1 sequence (Q96SW2 whole entry): as the sequence (Q96SW2 whole entry, species assumed) above
T1 sequence (Q16531 whole entry partner): as the sequence (Q16531 whole entry partner, species assumed) above

| Structure (SMILES) | activation at 1 µM [1] | CTG assay Mean minimum (GSPT1-HiBiT HEK293 cells) | EC50 [2] | activation at 1 µM [3] | pKi [4] |
| --- | --- | --- | --- | --- | --- |
| Cc1nc2cc(COC(=O)Nc3ccc(C(C)(C)C)c(Cl)c3)ccc2cc1C1CCC(=O)NC1=O (stereo not drawn) [Compound 10, (3-(2,6-dioxopiperidin-3-yl)-2-methylquinolin-7-yl)methyl (4-(tert-butyl)-3-chlorophenyl)carbamate] | < 10% | ++++ (++++≥75% of viability of the HiBiT-GSPT1 HEK293 cells) | < 316 nM | < 10% | > 6.30 |
| [2H]C([2H])(OC(=O)Nc1cc(C(C)(C)C)no1)c1ccc2cc(C3CCC(=O)NC3=O)c(C)nc2c1 (stereo not drawn) [Compound 82, (3-(2,6-dioxopiperidin-3-yl)-2-methylquinolin-7-yl)methyl-d2 (3-(tert-butyl)isoxazol-5-yl)carbamate] | < 10% | ++++ (++++≥75% of viability of the HiBiT-GSPT1 HEK293 cells) | < 316 nM | < 10% | > 6.30 |
| COc1cc(C)c(Cl)cc1NC(=O)OCc1ccc2cc(C3CCC(=O)NC3=O)c(C)nc2c1 (stereo not drawn) [Compound 21, (3-(2,6-dioxopiperidin-3-yl)-2-methylquinolin-7-yl)methyl (5-chloro-2-methoxy-4-methylphenyl)carbamate] | < 10% | ++++ (++++≥75% of viability of the HiBiT-GSPT1 HEK293 cells) | 316 to 3160 nM | < 10% | 6.00 to 6.30 |
| Cc1ccc(NC(=O)OCc2ccc3cc(N4CCC(=O)NC4=O)c(C)nc3c2)cc1Cl [Compound 28, (3-(2,4-dioxotetrahydropyrimidin-1(2H)-yl)-2-methylquinolin-7-yl)methyl (3-chloro-4-methylphenyl)carbamate] | < 10% | ++++ (++++≥75% of viability of the HiBiT-GSPT1 HEK293 cells) | 316 to 3160 nM | < 10% | 6.00 to 6.30 |
| Cc1ncc(NC(=O)OCc2ccc3cc(C4CCC(=O)NC4=O)c(C)nc3c2)cc1Cl (stereo not drawn) [Compound 58, (3-(2,6-dioxopiperidin-3-yl)-2-methylquinolin-7-yl)methyl (5-chloro-6-methylpyridin-3-yl)carbamate] | < 10% | ++++ (++++≥75% of viability of the HiBiT-GSPT1 HEK293 cells) | 316 to 3160 nM | < 10% | 6.00 to 6.30 |
| Cc1ccc(NC(=O)OCc2ccc3c(C)c(C4CCC(=O)NC4=O)c(C)nc3c2)cc1Cl (stereo not drawn) [Compound 44, (3-(2,6-dioxopiperidin-3-yl)-2,4-dimethylquinolin-7-yl)methyl (3-chloro-4-methylphenyl)carbamate] | < 10% | ++++ (++++≥75% of viability of the HiBiT-GSPT1 HEK293 cells) | < 316 nM | < 10% | > 6.30 |
| Cc1nc2cc(COC(=O)Nc3ccc4c(c3)OCO4)ccc2cc1C1CCC(=O)NC1=O (stereo not drawn) [Compound 14, (3-(2,6-dioxopiperidin-3-yl)-2-methylquinolin-7-yl)methyl benzo[d][1,3]dioxol-5-ylcarbamate] | < 10% | ++++ (++++≥75% of viability of the HiBiT-GSPT1 HEK293 cells) | 316 to 3160 nM | < 10% | < 6.00 |
| Cc1nc2cc(COC(=O)Nc3cc(C(C)(C)C)no3)ccc2cc1C1CCC(=O)NC1=O (stereo not drawn) [Compound 30, (3-(2,6-dioxopiperidin-3-yl)-2-methylquinolin-7-yl)methyl (3-(tert-butyl)isoxazol-5-yl)carbamate] | < 10% | ++++ (++++≥75% of viability of the HiBiT-GSPT1 HEK293 cells) | 316 to 3160 nM | < 10% | 6.00 to 6.30 |
| Cc1ccc(NC(=O)OCc2ccc3cc(C4CCC(=O)NC4=O)c(C)nc3c2)cc1Cl (stereo not drawn) [Compound 4, (3-(2,6-dioxopiperidin-3-yl)-2-methylquinolin-7-yl)methyl (3-chloro-4-methylphenyl)carbamate] | < 10% | ++++ (++++≥75% of viability of the HiBiT-GSPT1 HEK293 cells) | 316 to 3160 nM | < 10% | 6.00 to 6.30 |

Source: patent publication US20260232682A1, “GSPT1 DEGRADER COMPOUNDS” (Captor Therapeutics S.A., priority 2023, published 2026)
